The values that follow are results of earlier work, collected in patent US20140056863A1, “NUTRITIONAL COMPOSITIONS HAVING ALPHA-HICA AND EICOSAPENTAENOIC ACID” (Nestec S.A., priority 2011, published 2014).

Series [1] concerns malnourished aged animals.
Series [2] concerns intestinal mammalian target of rapamycin (mTOR). Conditions: piglet stressed with LPS; leading to increased protein synthesis and anti-inflammatory responses.

Turning to `NC(=O)NCCC[C@H](N)C(=O)O` [Citrulline, citrulline], in series [1], the anabolic effect entry is reported as “anabolic effect”.

For `O=C(O)CCC(=O)C(=O)O` [AKG, α-ketoglutarate], in series [2], the “phosphorylation of intestinal mTOR” value is given as “increased phosphorylation”.
